Values quoted from earlier work in US20070077296A1, “Pharmaceutical Preparation containing Meloxicam” (priority 2005, published 2007).

Cc1cnc(NC(=O)C2=C(O)c3ccccc3S(=O)(=O)N2C)s1 [meloxicam, 4-hydroxy-2-methyl-N-(5-methyl-2-thiazolyl)-2H-1,2-benzothiazine-3-carboxamide-1,1-dioxide]
solubility in water: hardly dissolve in water
